The record followed here is patent publication US11141455B2, “Peptide analogues with branched amino acid probe(s)” (priority 2014, dated 2021).

Structures are written as SMILES.

The assay has as its target T1, human GLP-2 receptor (Homo sapiens, UniProt O95838).
T1 construct: expressed in transfected cells; host or cells: CHO-K1 cells
T1 sequence (O95838 1-553): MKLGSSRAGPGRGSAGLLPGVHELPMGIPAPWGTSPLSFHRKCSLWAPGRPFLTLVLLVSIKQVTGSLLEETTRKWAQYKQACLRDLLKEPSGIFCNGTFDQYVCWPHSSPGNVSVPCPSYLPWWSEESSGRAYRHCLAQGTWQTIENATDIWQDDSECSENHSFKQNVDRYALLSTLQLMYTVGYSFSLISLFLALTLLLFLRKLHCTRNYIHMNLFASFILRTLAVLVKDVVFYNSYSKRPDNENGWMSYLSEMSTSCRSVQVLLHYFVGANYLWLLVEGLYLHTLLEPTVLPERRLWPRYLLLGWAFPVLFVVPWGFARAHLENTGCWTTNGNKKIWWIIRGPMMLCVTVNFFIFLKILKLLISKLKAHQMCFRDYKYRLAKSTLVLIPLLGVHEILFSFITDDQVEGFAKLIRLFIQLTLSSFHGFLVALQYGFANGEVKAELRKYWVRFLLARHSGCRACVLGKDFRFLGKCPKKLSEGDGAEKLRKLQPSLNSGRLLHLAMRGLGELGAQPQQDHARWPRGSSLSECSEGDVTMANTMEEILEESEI
Kind of assay: cAMP production (HTRF) in CHO-K1 cells expressing GLP-2 receptor. In kind it is cell-based. The following applies: cAMP; for Emax: CHO-K1, control peptide GLP-2 (1-34), read-out: Max efficacy in % of control peptide; for EC50: CHO-K1 human GLP-2 receptor. The method, then:
CHO-K1 cells expressing the human GLP-2 receptor grown in media without antibiotic were detached by gentle flushing with PBS-EDTA (5 mM EDTA), recovered by centrifugation and resuspended in assay buffer (KRH: 5 mM KCl, 1.25 mM MgSO4, 124 mM NaCl, 25 mM HEPES, 13.3 mM Glucose, 1.25 mM KH2PO4, 1.45 mM CaCl2), 0.5 g/l BSA).
12 μl of cells were mixed with 12 μl of the test compound (solubilized in PBS/0.5% BSA and finally diluted from a stock solution of 1 mM) at increasing concentrations in 96 wells plates and then incubated 30 min at room temperature. cAMP production was determined after addition of a lysis buffer and 1 hour incubation, by use of competitive immunoassay using cryptate-labeled anti-cAMP and d2-labeled cAMP (HTRF kit from CisBio) with Delta F percentage values calculated according to the manufacturer specification. Dose response curves were performed in parallel with test compounds, and reference compounds.
The HTRF technology is a titration assay based on a competition between labeled cAMP (exogenous) and cAMP produced by the cell after activation of the […]. The dynamic range of the assay was 3-4 fold meaning that the linear range (which enables conversion from raw data to nM of cAMP) is within that range. […] All experiments were conducted in the presence of the non-selective phosphodiesterase inhibitor IBMX (1 mM in final concentration).
The test compounds were tested in a concentration range from […] to 10^−7M
Data is presented as mean values.

One may read the EC50 as the midpoint of the concentration-response curve. With `CC[C@H](C)[C@H](NC(=O)[C@H](Cc1ccccc1)NC(=O)[C@H](CC(=O)O)NC(=O)[C@H](CCCNC(=N)N)NC(=O)[C@H](C)NC(=O)[C@H](C)NC(=O)[C@H](CC(C)C)NC(=O)[C@H](CC(N)=O)NC(=O)[C@H](CC(=O)O)NC(=O)[C@H](CC(C)C)NC(=O)[C@@H](NC(=O)[C@@H](NC(=O)[C@H](CC(N)=O)NC(=O)[C@H](CCSC)NC(=O)[C@H](CCC(=O)O)NC(=O)[C@H](CC(=O)O)NC(=O)[C@H](CO)NC(=O)[C@H](Cc1ccccc1)NC(=O)[C@H](CO)NC(=O)CNC(=O)[C@H](CC(=O)O)NC(=O)[C@H](C)NC(=O)[C@H](Cc1c[nH]cn1)NC(C)=O)[C@@H](C)O)[C@@H](C)CC)C(=O)N[C@@H](CC(N)=O)C(=O)N[C@@H](Cc1c[nH]c2ccccc12)C(=O)N[C@@H](CC(C)C)C(=O)N[C@H](C(=O)N[C@@H](CCC(N)=O)C(=O)N[C@H](C(=O)N[C@@H](CCCCN)C(=O)N[C@H](C(=O)N[C@H](C(=O)N[C@@H](CC(=O)O)C(=O)N[C@@H](CCCCNC(=O)[C@H](CCCCN)NC(=O)[C@H](CCCCN)NC(C)=O)C(N)=O)[C@@H](C)O)[C@@H](C)CC)[C@@H](C)O)[C@@H](C)CC` [Analogue 3], the Emax was 101% and the EC50 came to 3.4 nM.
Taken in the same sequence, the figures for `CC[C@H](C)[C@H](NC(=O)[C@H](Cc1ccccc1)NC(=O)[C@H](CC(=O)O)NC(=O)[C@H](CCCNC(=N)N)NC(=O)[C@H](C)NC(=O)[C@H](C)NC(=O)[C@H](CC(C)C)NC(=O)[C@H](CC(N)=O)NC(=O)[C@H](CC(=O)O)NC(=O)[C@H](CC(C)C)NC(=O)[C@@H](NC(=O)[C@@H](NC(=O)[C@H](CC(N)=O)NC(=O)[C@H](CCSC)NC(=O)[C@H](CCC(=O)O)NC(=O)[C@H](CC(=O)O)NC(=O)[C@H](CO)NC(=O)[C@H](Cc1ccccc1)NC(=O)[C@H](CO)NC(=O)CNC(=O)[C@H](CC(=O)O)NC(=O)CNC(=O)[C@H](Cc1c[nH]cn1)NC(C)=O)[C@@H](C)O)[C@@H](C)CC)C(=O)N[C@@H](CC(N)=O)C(=O)N[C@@H](Cc1c[nH]c2ccccc12)C(=O)N[C@@H](CC(C)C)C(=O)N[C@H](C(=O)N[C@@H](CCC(N)=O)C(=O)N[C@H](C(=O)N[C@@H](CCCCN)C(=O)N[C@H](C(=O)N[C@H](C(=O)N[C@@H](CC(=O)O)C(=O)N[C@@H](CCCCNC(=O)[C@H](CCCCN)NC(=O)[C@H](CCCCN)NC(C)=O)C(N)=O)[C@@H](C)O)[C@@H](C)CC)[C@@H](C)O)[C@@H](C)CC` [Analogue 4] were 102% and 5.9 nM.
Consider `CC[C@H](C)[C@H](NC(=O)[C@H](Cc1ccccc1)NC(=O)[C@H](CC(=O)O)NC(=O)[C@H](CCCNC(=N)N)NC(=O)[C@H](C)NC(=O)[C@H](C)NC(=O)[C@H](CC(C)C)NC(=O)[C@H](CC(N)=O)NC(=O)[C@H](CC(=O)O)NC(=O)[C@H](CC(C)C)NC(=O)[C@@H](NC(=O)[C@@H](NC(=O)[C@H](CC(N)=O)NC(=O)[C@H](CCSC)NC(=O)[C@H](CCC(=O)O)NC(=O)[C@H](CC(=O)O)NC(=O)[C@H](CO)NC(=O)[C@H](Cc1ccccc1)NC(=O)[C@H](CO)NC(=O)CNC(=O)[C@H](CC(=O)O)NC(=O)[C@@H](C)NC(=O)[C@H](Cc1c[nH]cn1)NC(C)=O)[C@@H](C)O)[C@@H](C)CC)C(=O)N[C@@H](CC(N)=O)C(=O)N[C@@H](Cc1c[nH]c2ccccc12)C(=O)N[C@@H](CC(C)C)C(=O)N[C@H](C(=O)N[C@@H](CCC(N)=O)C(=O)N[C@H](C(=O)N[C@@H](CCCCN)C(=O)N[C@H](C(=O)N[C@H](C(=O)N[C@@H](CC(=O)O)C(=O)N[C@@H](CCCCNC(=O)[C@H](CCCCN)NC(=O)[C@H](CCCCN)NC(C)=O)C(N)=O)[C@@H](C)O)[C@@H](C)CC)[C@@H](C)O)[C@@H](C)CC` [Analogue 5], for which the Emax stood at 95.1% and the response was half-maximal at 8.9 nM (EC50).
